Test results published in ChEMBL document CHEMBL5226307, “Advances in Cyclic Nucleotide Phosphodiesterase-Targeted PET Imaging and Drug Discovery” (J Med Chem, 2021).
Blank lines part the entries; values can stand above or below the compound they belong to.

Legend:
[1] = target: Phosphodiesterase 7 (Homo sapiens, UniProt Q13946+Q9NP56); experiment: Inhibition of PDE7 (unknown origin); format: protein assay
[2] = Stability in mouse brain measured at 15 mins; format: ADME, tissue-based; conditions: read-out: Stability
[3] = Metabolic stability in cynomolgus monkey assessed as parent compound remaining incubated for 30 mins in presence of NADPH; format: ADME, Macaca fascicularis; conditions: read-out: Stability
[4] = target: T1, cAMP and cAMP-inhibited cGMP 3',5'-cyclic phosphodiesterase 10A (Rattus norvegicus, UniProt Q9QYJ6)
T1 sequence (Q9QYJ6 whole entry): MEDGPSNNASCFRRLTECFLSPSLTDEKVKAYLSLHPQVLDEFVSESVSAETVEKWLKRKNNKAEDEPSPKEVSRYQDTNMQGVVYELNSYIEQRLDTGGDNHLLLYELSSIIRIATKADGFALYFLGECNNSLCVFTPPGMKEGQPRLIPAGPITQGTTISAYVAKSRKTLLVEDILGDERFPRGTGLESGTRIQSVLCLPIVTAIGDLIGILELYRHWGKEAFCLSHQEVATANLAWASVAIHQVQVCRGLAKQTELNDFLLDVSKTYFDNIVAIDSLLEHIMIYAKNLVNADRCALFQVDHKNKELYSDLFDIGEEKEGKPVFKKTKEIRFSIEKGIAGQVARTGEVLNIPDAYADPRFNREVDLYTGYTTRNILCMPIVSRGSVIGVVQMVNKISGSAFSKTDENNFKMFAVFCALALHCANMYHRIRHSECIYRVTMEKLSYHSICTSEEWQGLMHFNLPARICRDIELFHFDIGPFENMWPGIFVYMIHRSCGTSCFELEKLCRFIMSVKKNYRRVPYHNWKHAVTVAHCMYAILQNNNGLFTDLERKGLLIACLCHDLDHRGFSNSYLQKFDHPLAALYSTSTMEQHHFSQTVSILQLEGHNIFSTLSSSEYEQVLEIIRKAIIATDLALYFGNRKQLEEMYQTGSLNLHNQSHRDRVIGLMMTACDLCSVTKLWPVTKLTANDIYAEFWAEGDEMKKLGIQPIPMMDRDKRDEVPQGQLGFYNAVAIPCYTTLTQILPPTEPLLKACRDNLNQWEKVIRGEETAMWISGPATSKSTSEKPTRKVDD

[5] = target: T2, cAMP and cAMP-inhibited cGMP 3',5'-cyclic phosphodiesterase 10A (Homo sapiens, UniProt Q9Y233); experiment: Inhibition of PDE10A (unknown origin)
T2 sequence (Q9Y233 whole entry): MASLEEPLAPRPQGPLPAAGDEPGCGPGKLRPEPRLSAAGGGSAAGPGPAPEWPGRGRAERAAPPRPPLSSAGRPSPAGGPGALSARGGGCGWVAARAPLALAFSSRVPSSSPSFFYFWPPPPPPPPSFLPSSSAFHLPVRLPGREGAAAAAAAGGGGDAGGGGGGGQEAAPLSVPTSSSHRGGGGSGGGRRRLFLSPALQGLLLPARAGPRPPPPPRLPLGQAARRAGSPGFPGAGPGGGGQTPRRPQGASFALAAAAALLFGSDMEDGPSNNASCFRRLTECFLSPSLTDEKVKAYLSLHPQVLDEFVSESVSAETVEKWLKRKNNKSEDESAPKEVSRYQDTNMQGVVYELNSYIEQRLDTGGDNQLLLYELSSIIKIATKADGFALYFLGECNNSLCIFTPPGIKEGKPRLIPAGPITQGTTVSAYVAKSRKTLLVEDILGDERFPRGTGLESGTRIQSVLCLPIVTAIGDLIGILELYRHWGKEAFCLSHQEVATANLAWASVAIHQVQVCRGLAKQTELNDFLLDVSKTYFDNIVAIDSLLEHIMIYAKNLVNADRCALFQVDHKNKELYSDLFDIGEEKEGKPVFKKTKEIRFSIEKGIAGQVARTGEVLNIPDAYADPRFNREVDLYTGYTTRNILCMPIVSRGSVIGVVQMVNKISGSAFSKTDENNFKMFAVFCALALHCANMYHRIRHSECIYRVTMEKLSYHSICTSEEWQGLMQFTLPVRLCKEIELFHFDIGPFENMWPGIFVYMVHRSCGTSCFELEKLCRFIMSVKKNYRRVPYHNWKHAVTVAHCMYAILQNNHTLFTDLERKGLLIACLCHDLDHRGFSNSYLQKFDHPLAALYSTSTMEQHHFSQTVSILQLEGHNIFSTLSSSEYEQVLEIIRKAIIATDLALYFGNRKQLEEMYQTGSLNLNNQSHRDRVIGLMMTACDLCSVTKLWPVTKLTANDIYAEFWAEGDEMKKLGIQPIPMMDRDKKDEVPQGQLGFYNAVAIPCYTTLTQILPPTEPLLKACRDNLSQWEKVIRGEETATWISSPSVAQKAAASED

[6] = target: T3, cGMP-specific 3',5'-cyclic phosphodiesterase (Homo sapiens, UniProt O76074); experiment: Inhibition of PDE5 (unknown origin)
[7] = target: T3, cGMP-specific 3',5'-cyclic phosphodiesterase; experiment: Inhibition of PDE5A (unknown origin)
[8] = target: T3, cGMP-specific 3',5'-cyclic phosphodiesterase; experiment: Binding affinity to PDE5 (unknown origin); conditions: tested as the 18F-labelled form
[9] = Drug uptake in NMRI mouse lung assessed as maximum standardized uptake value incubated for 30 mins; format: ADME, tissue-based; conditions: in vivo, 0.5 h
[10] = Lipophilicity, logD of the compound in Octanol/potassium phosphate buffer at pH 7.4 after 1 hr by HPLC analysis; format: physicochemical
[11] = target: T4, cGMP-dependent 3',5'-cyclic phosphodiesterase (Homo sapiens, UniProt O00408); experiment: Inhibition of human PDE2A
T4 sequence (O00408 whole entry): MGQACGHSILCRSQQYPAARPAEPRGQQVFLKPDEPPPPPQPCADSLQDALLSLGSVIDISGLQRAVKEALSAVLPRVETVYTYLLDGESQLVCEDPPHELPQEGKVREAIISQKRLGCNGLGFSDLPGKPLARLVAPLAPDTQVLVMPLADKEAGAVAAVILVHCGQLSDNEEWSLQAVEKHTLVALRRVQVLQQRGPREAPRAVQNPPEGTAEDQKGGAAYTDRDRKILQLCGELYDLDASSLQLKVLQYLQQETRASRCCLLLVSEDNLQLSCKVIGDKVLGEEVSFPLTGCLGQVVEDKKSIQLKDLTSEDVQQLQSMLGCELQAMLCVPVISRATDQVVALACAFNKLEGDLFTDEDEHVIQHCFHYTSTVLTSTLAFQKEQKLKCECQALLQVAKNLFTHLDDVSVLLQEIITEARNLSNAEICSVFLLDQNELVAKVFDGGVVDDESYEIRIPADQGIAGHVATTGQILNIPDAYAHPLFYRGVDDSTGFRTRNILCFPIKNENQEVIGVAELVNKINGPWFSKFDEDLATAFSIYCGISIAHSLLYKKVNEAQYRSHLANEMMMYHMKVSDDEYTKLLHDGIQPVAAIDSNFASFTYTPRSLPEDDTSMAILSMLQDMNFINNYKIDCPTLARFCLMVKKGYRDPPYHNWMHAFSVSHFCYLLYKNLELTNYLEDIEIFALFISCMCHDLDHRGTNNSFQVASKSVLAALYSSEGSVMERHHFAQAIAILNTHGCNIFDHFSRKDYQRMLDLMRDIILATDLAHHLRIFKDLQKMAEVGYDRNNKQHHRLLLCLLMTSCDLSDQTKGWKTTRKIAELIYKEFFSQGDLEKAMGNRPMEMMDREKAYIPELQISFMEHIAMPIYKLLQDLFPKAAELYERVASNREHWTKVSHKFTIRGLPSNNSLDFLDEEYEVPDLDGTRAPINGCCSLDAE

[12] = target: T2, cAMP and cAMP-inhibited cGMP 3',5'-cyclic phosphodiesterase 10A; experiment: Inhibition of human PDE10A
[13] = target: T2, cAMP and cAMP-inhibited cGMP 3',5'-cyclic phosphodiesterase 10A; experiment: Binding affinity to full length human PDE10A assessed as dissociation constant using [3H]-cAMP as substrate
[14] = target: T2, cAMP and cAMP-inhibited cGMP 3',5'-cyclic phosphodiesterase 10A; experiment: Binding affinity to full length human PDE10A assessed as dissociation constant
[15] = target: T2, cAMP and cAMP-inhibited cGMP 3',5'-cyclic phosphodiesterase 10A; experiment: Inhibition of human PDE10
[16] = target: Dual 3',5'-cyclic-AMP and -GMP phosphodiesterase 11A (Homo sapiens, UniProt Q9HCR9); experiment: Inhibition of human PDE11
[17] = target: Phosphodiesterase 1 (Homo sapiens, UniProt P54750+Q01064+Q14123); experiment: Inhibition of PDE1 (unknown origin); format: protein assay
[18] = target: Phosphodiesterase 4 (Homo sapiens, UniProt P27815+Q08499+Q07343+Q08493); experiment: Binding affinity to human PDE4 assessed as dissociation constant; format: protein assay
[19] = Metabolic stability in non human primates plasma assessed as parent compound remaining incubated for 70 mins by HPLC analysis; format: ADME, cell-free; conditions: read-out: Stability
[20] = Metabolic stability in baboon brain assessed as parent compound remaining incubated for 90 mins; format: ADME, tissue-based, Papio; conditions: read-out: Stability
[21] = target: T2, cAMP and cAMP-inhibited cGMP 3',5'-cyclic phosphodiesterase 10A; experiment: Binding affinity to PDE10A (unknown origin) assessed as dissociation constant
[22] = Stability in human plasma assessed as parent compound remaining after 120 mins; format: ADME, cell-free; conditions: read-out: Stability
[23] = Drug uptake in human caudate nucleus assessed as standardized uptake value; format: ADME, tissue-based
[24] = Drug uptake in human putamen nucleus assessed as standardized uptake value; format: ADME, tissue-based
[25] = Drug uptake in human globus pallidus assessed as standardized uptake value; format: ADME, tissue-based
[26] = Metabolic stability in mouse brain assessed as parent compound remaining incubated for 30 mins by HPLC analysis; format: ADME, tissue-based; conditions: read-out: Stability
[27] = Metabolic stability in mouse plasma assessed as parent compound remaining incubated for 30 mins by HPLC analysis; format: ADME, cell-free; conditions: read-out: Stability
[28] = Drug uptake in mouse striatum; format: ADME, tissue-based; conditions: in vivo
[29] = Drug uptake in mouse brown adipose tissue; format: ADME, tissue-based; conditions: in vivo
[30] = Drug uptake in mouse striatum assessed as standardized uptake value; format: ADME, tissue-based; conditions: in vivo
[31] = Drug uptake in pig myocardium assessed as standardized uptake value; format: ADME, tissue-based, Sus scrofa; conditions: in vivo
[32] = Drug uptake in NMRI mouse lung incubated for 30 mins relative to control; format: ADME, tissue-based; conditions: in vivo, 0.5 h
[33] = Toxicity in mouse assessed as body weight loss at 10 mg/kg/day, po; format: organism-based; conditions: in vivo
[34] = target: High affinity 3',5'-cyclic-AMP phosphodiesterase 7A (Homo sapiens, UniProt Q13946); experiment: Inhibition of human PDE7A1
Sequence of High affinity 3',5'-cyclic-AMP phosphodiesterase 7A (Q13946 whole entry): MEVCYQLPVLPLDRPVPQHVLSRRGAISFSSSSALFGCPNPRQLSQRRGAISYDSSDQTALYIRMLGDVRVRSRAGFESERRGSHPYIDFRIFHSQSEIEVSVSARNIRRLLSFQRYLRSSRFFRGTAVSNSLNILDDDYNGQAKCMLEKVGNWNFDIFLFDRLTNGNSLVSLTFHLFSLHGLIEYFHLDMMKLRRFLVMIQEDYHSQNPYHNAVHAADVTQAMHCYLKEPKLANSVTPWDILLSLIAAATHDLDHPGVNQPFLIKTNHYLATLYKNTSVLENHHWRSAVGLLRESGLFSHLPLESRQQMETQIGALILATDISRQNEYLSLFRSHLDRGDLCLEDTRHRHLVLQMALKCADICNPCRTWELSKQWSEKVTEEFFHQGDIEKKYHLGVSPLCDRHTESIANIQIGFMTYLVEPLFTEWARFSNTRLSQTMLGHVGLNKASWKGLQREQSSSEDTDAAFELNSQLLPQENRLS

[35] = target: Dual specificity calcium/calmodulin-dependent 3',5'-cyclic nucleotide phosphodiesterase 1B (Homo sapiens, UniProt Q01064); experiment: Inhibition of human PDE1B
Sequence of Dual specificity calcium/calmodulin-dependent 3',5'-cyclic nucleotide phosphodiesterase 1B (Q01064 whole entry): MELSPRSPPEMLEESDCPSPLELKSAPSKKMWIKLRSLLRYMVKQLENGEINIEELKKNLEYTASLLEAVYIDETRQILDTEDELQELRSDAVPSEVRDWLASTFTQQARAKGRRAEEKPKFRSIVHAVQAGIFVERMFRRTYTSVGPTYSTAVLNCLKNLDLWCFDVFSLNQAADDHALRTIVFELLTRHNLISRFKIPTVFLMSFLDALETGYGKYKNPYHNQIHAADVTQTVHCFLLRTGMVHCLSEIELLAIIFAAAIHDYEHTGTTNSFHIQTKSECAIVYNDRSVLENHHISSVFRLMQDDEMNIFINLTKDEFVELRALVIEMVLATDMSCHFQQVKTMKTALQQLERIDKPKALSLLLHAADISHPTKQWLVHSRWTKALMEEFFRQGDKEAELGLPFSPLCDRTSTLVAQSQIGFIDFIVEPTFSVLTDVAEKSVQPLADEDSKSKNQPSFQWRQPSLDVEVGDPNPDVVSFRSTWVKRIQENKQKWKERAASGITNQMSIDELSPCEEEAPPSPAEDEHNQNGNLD

[36] = target: Dual specificity calcium/calmodulin-dependent 3',5'-cyclic nucleotide phosphodiesterase 1C (Homo sapiens, UniProt Q14123); experiment: Inhibition of human PDE1C
Sequence of Dual specificity calcium/calmodulin-dependent 3',5'-cyclic nucleotide phosphodiesterase 1C (Q14123 whole entry): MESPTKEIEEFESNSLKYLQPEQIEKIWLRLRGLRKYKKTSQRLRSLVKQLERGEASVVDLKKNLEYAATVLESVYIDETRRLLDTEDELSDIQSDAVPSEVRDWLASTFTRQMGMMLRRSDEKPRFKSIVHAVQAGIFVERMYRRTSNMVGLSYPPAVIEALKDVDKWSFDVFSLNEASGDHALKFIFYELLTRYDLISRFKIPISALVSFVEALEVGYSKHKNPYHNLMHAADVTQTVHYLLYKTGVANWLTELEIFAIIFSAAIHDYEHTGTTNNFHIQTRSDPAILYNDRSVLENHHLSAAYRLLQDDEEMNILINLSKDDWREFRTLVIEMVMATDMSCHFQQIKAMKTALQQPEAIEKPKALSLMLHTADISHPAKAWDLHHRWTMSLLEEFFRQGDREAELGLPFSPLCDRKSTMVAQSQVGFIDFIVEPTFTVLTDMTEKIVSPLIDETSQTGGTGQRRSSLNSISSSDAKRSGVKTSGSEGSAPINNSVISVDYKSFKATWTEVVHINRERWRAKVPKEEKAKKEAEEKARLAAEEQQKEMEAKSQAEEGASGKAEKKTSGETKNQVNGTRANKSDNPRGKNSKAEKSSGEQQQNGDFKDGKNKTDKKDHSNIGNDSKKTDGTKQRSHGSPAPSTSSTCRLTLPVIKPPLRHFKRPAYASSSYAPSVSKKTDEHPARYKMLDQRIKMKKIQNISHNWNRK

[37] = target: T4, cGMP-dependent 3',5'-cyclic phosphodiesterase; experiment: Inhibition of human PDE2
[38] = target: T3, cGMP-specific 3',5'-cyclic phosphodiesterase; experiment: Inhibition of human PDE5
[39] = target: 3',5'-cyclic-AMP phosphodiesterase 4A (Homo sapiens, UniProt P27815); experiment: Inhibition of human PDE4A
Sequence of 3',5'-cyclic-AMP phosphodiesterase 4A (P27815 whole entry): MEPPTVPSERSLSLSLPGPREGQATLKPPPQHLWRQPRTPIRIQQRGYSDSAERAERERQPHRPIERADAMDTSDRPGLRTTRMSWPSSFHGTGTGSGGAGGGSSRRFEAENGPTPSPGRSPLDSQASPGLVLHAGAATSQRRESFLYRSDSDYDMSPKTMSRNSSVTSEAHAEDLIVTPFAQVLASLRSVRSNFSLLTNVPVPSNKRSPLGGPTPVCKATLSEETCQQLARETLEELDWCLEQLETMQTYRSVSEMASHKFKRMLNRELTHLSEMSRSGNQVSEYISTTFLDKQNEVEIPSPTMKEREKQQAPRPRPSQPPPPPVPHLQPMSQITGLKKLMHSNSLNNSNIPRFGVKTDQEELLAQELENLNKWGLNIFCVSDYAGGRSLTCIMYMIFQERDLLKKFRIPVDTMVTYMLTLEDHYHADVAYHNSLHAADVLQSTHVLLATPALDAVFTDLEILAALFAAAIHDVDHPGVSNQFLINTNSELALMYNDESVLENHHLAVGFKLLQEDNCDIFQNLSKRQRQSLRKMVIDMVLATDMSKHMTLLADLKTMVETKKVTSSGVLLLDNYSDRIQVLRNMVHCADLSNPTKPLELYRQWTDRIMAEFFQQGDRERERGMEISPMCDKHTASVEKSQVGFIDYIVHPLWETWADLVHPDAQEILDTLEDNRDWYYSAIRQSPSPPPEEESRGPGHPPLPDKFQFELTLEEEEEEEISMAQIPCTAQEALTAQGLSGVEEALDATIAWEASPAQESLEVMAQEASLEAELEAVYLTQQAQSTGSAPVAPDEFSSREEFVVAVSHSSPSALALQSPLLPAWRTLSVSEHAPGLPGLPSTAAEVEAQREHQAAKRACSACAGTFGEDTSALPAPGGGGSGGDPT

SMILES: Cc1ccc(C)n2nc(CCc3nc(-c4ccccc4)cn3[11CH3])nc12
- remaining at 0.5 h [3]: 27%
- IC50 [4]: 0.39 nM

SMILES: CC([18F])C(=O)N1CCC(c2nccnc2Oc2ccc(C(=O)c3nc4ccccc4[nH]3)cc2)CC1 (stereo not drawn)
- IC50 [5]: 0.13 nM

SMILES: CC(C)Oc1cccc2c1C(=O)N(CCc1nc3ccccc3c(=O)n1-c1ccc(O[11CH3])cc1)C2=O
- logD at 1 h [10]: 3.19

SMILES: COc1cc2nncc(-c3cnc(NC(C)C)c(C)c3)c2cc1O[11CH3]
- IC50 [5]: 1.9 nM

SMILES: CC(C)C(=O)c1c(C(C)C)nn2ccccc12 [IBUDILAST]
- IC50 [15]: ≤ 10000 nM
- IC50 [16]: ≤ 10000 nM

SMILES: [11CH3]n1cc(-c2ccncc2)c(-c2ccc(OCc3ccc4ccccc4n3)cc2)n1
- remaining at 1.167 h [19]: 24%
- remaining at 1.5 h [20]: 30%

SMILES: COc1ccc2nnc3c(C)nc(-c4cc(OCCC[18F])ccc4F)n3c2n1
- IC50 [11]: 11.4 nM
- IC50 [12]: 7.3 nM

SMILES: COc1cc(Br)cc2c1nc(C)c1c(C)nc(-c3ccc([18F])nc3)n12
- remaining at 0.5 h [26]: 88%
- remaining at 0.5 h [27]: 64%
- Drug uptake [28]: 130%
- Drug uptake [29]: 30%
- SUV [30]: 2.7

SMILES: [11CH3]N(c1cc(N2CC[C@@H](F)C2)nc2cc(-c3cnc4c(n3)CCCC4)nn12)C1CCOCC1
- IC50 [5]: 0.06 nM
- remaining at 1.5 h [20]: 50%

SMILES: CC(=O)N1CCC(c2nccnc2Oc2ccc(C(=O)c3nc4ccccc4[nH]3)cc2)CC1
- IC50 [5]: 0.18 nM

SMILES: Cn1cc(-c2ccncc2)c(-c2ccc(OCc3ccc4ccccc4n3)cc2)n1 [MARDEPODECT]
- Activity [33]: 8.61%

SMILES: Cc1ccc([N+](=O)[O-])cc1S(=O)(=O)N(C)C
- IC50 [34]: 260 nM
- IC50 [35]: 62000 nM
- IC50 [36]: 62000 nM
- IC50 [37]: 62000 nM
- IC50 [38]: 62000 nM
- IC50 [39]: 62000 nM

Second part, the compound after the results:

- IC50 [1]: 17 nM
- remaining at […] [2]: 84%
SMILES: O=C1Nc2c(Cl)ccc(OCC[18F])c2C2(CCCCC2)N1

- IC50 [6]: 1.86 nM
- IC50 [7]: 5.92 nM
- Bmax [8]: 0.1 nM
SMILES: COc1ccc(CNc2c(CO)cnc3c(N4CC(F)C4)cc(C#N)cc23)cc1Cl

- SUVmax [9]: 8.9
SMILES: CCCc1nc(C)c2c(=O)[nH]c(-c3cc(S(=O)(=O)N4CCN(CC[18F])CC4)ccc3OCC)nn12

- IC50 [11]: 913 nM
- IC50 [12]: 7.3 nM
SMILES: COc1ccc2nnc3c(C)nc(-c4cc(OCCCC[18F])ccc4F)n3c2n1

- IC50 [12]: > 1000 nM
SMILES: CCCCOc1ccc(F)c(-c2nc(C)c3nnc4ccc(OCC[18F])nc4n23)c1

- IC50 [5]: 0.5 nM
- Kd [13]: 3.17 nM
- Kd [14]: 6.62 nM
SMILES: [18F]CCn1cc(-c2ccncc2)c(-c2ccc(OCc3ccc4ccccc4n3)cc2)n1

- IC50 [17]: 13 nM
SMILES: CC(C)Cn1c(=O)n(C)c(=O)c2c(Nc3ccccc3)n(Cc3ccc(C4CCCN4C)cc3)nc21 (stereo not drawn)

- Kd [18]: 0.26 nM
SMILES: O=C1C[C@H](c2ccc(OCF)c(OC3CCCC3)c2)CN1

- IC50 [1]: 1.7 nM
- remaining at […] [2]: 74%
SMILES: [11CH3]n1nnc(COc2ccc(Cl)c3c2C2(CCCCC2)NC(=O)N3)n1

- IC50 [5]: 2 nM
SMILES: Cc1cnc(COc2ccc(-c3nn(CC[18F])cc3-c3ccncc3)cc2)c(C)c1

- Kd [21]: 0.029 nM
- remaining at 2 h [22]: 20%
- SUV [23]: 0.7%
- SUV [24]: 0.7%
- SUV [25]: 1.5%
SMILES: Cc1ccc2c(=O)n(-c3ccc4cnn(CC[18F])c4c3)c(CCN3C(=O)c4cccc(OC(C)C)c4C3=O)nc2c1

- Kd [21]: 0.097 nM
- remaining at 2 h [22]: 20%
SMILES: Cc1ccc2c(=O)n(-c3ccc(OC[18F])cc3)c(CCN3C(=O)c4cccc(OC(C)C)c4C3=O)nc2c1

- IC50 [7]: 5.92 nM
- Bmax [8]: 0.1 nM
SMILES: CCc1cc(C#N)cc2c(NCc3ccc(OC)c(Cl)c3)c(COCCF)cnc12

- IC50 [5]: 0.77 nM
SMILES: [11CH3]Oc1cn(-c2ccc(C3CCOCC3)cc2F)nc(-c2ccnn2-c2ccccc2)c1=O

- SUV [31]: 3.8
SMILES: CCCCN1C(=O)[C@H]2Cc3c([nH]c4ccccc34)[C@@H](c3ccc(O[11CH3])cc3)N2C1=O

- SUV [31]: 2.6
SMILES: CCCCN1C(=O)[C@H]2Cc3c([nH]c4ccccc34)[C@@H](c3ccc(OC)cc3)N2C1=O

- SUVmax [9]: 8
- Drug uptake [32]: > 86%
SMILES: CCCc1nn(C)c2c(=O)[nH]c(-c3cc(S(=O)(=O)N4CCN([11CH3])CC4)ccc3OCC)nc12

- IC50 [17]: 170 nM
SMILES: CCC(CC)Nc1ncnc2c(OC)c(OC)ccc12
